Measured values published in ChEMBL document CHEMBL5608235, “Tricyclic Benzo[1,3]oxazinyloxazolidinones as Potent Antibacterial Agents against Drug-Resistant Pathogens” (J Med Chem, 2024).
Converted amounts (≈) assume the structure as drawn.

Legend:
[1] = Metabolic stability in ICR mouse liver microsomes assessed as compound remaining at 10 uM incubated for 60 mins in absence of NADPH by LC-MS/MS analysis; type: ADME, Microsome; details: read-out: Stability
Staphylococcus aureus [2] = assay: Antibacterial activity against methicillin resistant Staphylococcus aureus clinical isolate 20-1 assessed as inhibition of bacterial growth incubated for 7 days by alamar blue assay; type: functional; details: clinical isolate 20-1, 168 h, time 7 day
[3] = Metabolic stability in human liver microsomes assessed as compound remaining at 10 uM incubated for 60 mins in absence of NADPH by LC-MS/MS analysis; type: ADME, Microsome; details: read-out: Stability
Enterococcus faecalis [4] = assay: Antibacterial activity against Linezolid resistant Enterococcus faecalis clinical isolate 20-1 assessed as inhibition of bacterial growth incubated for 7 days by alamar blue assay; type: functional; details: clinical isolate 20-1, 168 h, time 7 day
Enterococcus faecalis [5] = assay: Antibacterial activity against Enterococcus faecalis ATCC29212 assessed as inhibition of bacterial growth incubated for 18 hrs by microdilution broth assay; type: functional
Staphylococcus aureus [6] = assay: Antibacterial activity against Linezolid resistant Staphylococcus aureus clinical isolate 20-1 assessed as inhibition of bacterial growth incubated for 7 days by alamar blue assay; type: functional; details: clinical isolate 20-1, 168 h, time 7 day
Staphylococcus aureus [7] = assay: Antibacterial activity against vancomycin intermediate Staphylococcus aureus ATCC700699 assessed as inhibition of bacterial growth incubated for 7 days by alamar blue assay; type: functional; details: ATCC700699, 168 h, time 7 day
Staphylococcus aureus [8] = assay: Antibacterial activity against Staphylococcus aureus ATCC25923 assessed as inhibition of bacterial growth incubated for 18 hrs by microdilution broth assay; type: functional
[9] = test system: Staphylococcus epidermidis; assay: Antibacterial activity against methicillin resistant Staphylococcus epidermidis clinical isolate 20-1 assessed as inhibition of bacterial growth incubated for 7 days by alamar blue assay; type: functional; details: clinical isolate 20-1, 168 h, time 7 day
Staphylococcus aureus [10] = assay: Antibacterial activity against methicillin resistant Staphylococcus aureus clinical isolate 20-2 assessed as inhibition of bacterial growth incubated for 7 days by alamar blue assay; type: functional; details: clinical isolate 20-2, 168 h, time 7 day
Enterococcus = assay: Antibacterial activity against vancomycin resistant Enterococcus clinical isolate 20-1 assessed as inhibition of bacterial growth incubated for 7 days by alamar blue assay; type: functional; details: clinical isolate 20-1, 168 h, time 7 day
[11] = test system: Mycobacterium tuberculosis; assay: Antibacterial activity against Mycobacterium tuberculosis H37Rv assessed as inhibition of bacterial growth incubated for 7 days by alamar blue assay; type: functional; details: 168 h, time 7 day
[12] = Metabolic stability in human liver microsomes assessed as substrate remaining at 10 uM incubated for 60 mins in presence of NADPH by LC-MS/MS analysis; type: ADME, Microsome; details: read-out: Stability
Bacillus subtilis = assay: Antibacterial activity against Bacillus subtilis ATCC6633 assessed as inhibition of bacterial growth incubated for 18 hrs by microdilution broth assay; type: functional
[13] = Metabolic stability in ICR mouse liver microsomes assessed as substrate remaining at 10 uM incubated for 60 mins in presence of NADPH by LC-MS/MS analysis; type: ADME, Microsome; details: read-out: Stability
[14] = test system: Staphylococcus epidermidis; assay: Antibacterial activity against methicillin resistant Staphylococcus epidermidis clinical isolate 20-2 assessed as inhibition of bacterial growth incubated for 7 days by alamar blue assay; type: functional; details: clinical isolate 20-2, 168 h, time 7 day
Enterococcus faecalis [15] = assay: Antibacterial activity against Linezolid resistant Enterococcus faecalis clinical isolate 20-2 assessed as inhibition of bacterial growth incubated for 7 days by alamar blue assay; type: functional; details: clinical isolate 20-2, 168 h, time 7 day
Staphylococcus aureus [16] = assay: Antibacterial activity against Linezolid resistant Staphylococcus aureus clinical isolate 20-2 assessed as inhibition of bacterial growth incubated for 7 days by alamar blue assay; type: functional; details: clinical isolate 20-2, 168 h, time 7 day
[17] = Cytotoxicity against African green monkey Vero cells incubated for 48 hrs by MTT assay; type: toxicity, cell-based, Chlorocebus sabaeus
[18] = test system: Staphylococcus epidermidis; assay: Antibacterial activity against Staphylococcus epidermidis ATCC12228 assessed as inhibition of bacterial growth incubated for 18 hrs by microdilution broth assay; type: functional
[19] = Oral bioavailability in BALB/c mouse at 10 mg/kg administration measured upto 24 hrs by LC-MS/MS analysis; type: ADME, organism-based; details: BALB/c, in vivo

Row | Structure (SMILES) | MIC (Enterococcus faecalis [5]) [µg/mL] | MIC (Staphylococcus aureus [8]) [µg/mL] | MIC [11] [µg/mL] | MIC (Bacillus subtilis) [µg/mL] | IC50 at 48 h [17] [µg/mL] | MIC [18] [µg/mL] | also measured
1 | COC(=O)NC[C@@H]1OC(=O)N2Cc3cc(-c4ccc(C#N)nc4)c(F)cc3O[C@@H]12 | 0.5 (≈ 1.26 µM) | 8 (≈ 20.1 µM) | 0.97 (≈ 2.44 µM) | 0.125 (≈ 0.314 µM) | 33 (≈ 82.8 µM) | 0.25 (≈ 0.628 µM) | remaining at 1 h, 10 µM [1]: 113%; MIC (Staphylococcus aureus [2]): 0.5 µg/mL (≈ 1.26 µM); remaining at 1 h, 10 µM [3]: 114%; MIC (Enterococcus faecalis [4]): 4 µg/mL (≈ 10 µM); MIC (Staphylococcus aureus [6]): 16 µg/mL (≈ 40.2 µM); MIC (Staphylococcus aureus [7]): 1 µg/mL (≈ 2.51 µM); MIC [9]: 0.25 µg/mL (≈ 0.628 µM); MIC (Staphylococcus aureus [10]): 0.5 µg/mL (≈ 1.26 µM); MIC (Enterococcus): 1 µg/mL (≈ 2.51 µM); remaining at 1 h, 10 µM [12]: 103%; remaining at 1 h, 10 µM [13]: 116%; MIC [14]: 0.25 µg/mL (≈ 0.628 µM); MIC (Enterococcus faecalis [15]): 4 µg/mL (≈ 10 µM); MIC (Staphylococcus aureus [16]): 16 µg/mL (≈ 40.2 µM)
2 | CC(=O)NC[C@@H]1OC(=O)N2Cc3c(cc(F)c(-c4ccc(C#N)cc4)c3F)O[C@@H]12 | 0.25 (≈ 0.626 µM) | 2 (≈ 5.01 µM) | 3.41 (≈ 8.54 µM) | 0.032 (≈ 0.0801 µM) | – | 1 (≈ 2.5 µM) | –
3 | N#Cc1ccc(-c2c(F)cc3c(c2F)CN2C(=O)O[C@@H](CN)[C@@H]2O3)cc1 | > 64 | 64 (≈ 179 µM) | 0.99 (≈ 2.77 µM) | 32 (≈ 89.6 µM) | 8 (≈ 22.4 µM) | 32 (≈ 89.6 µM) | –
4 | Cc1ncc2n1-c1ccc(Cl)cc1C(c1ccccc1F)=NC2 [MIDAZOLAM] | – | – | – | – | – | – | remaining at 1 h, 10 µM [12]: 62%; remaining at 1 h, 10 µM [13]: 48.9%
5 | COC(=O)NC[C@@H]1OC(=O)N2Cc3cc(-c4ccc(C(C)=O)cc4)c(F)cc3O[C@@H]12 | 0.5 (≈ 1.21 µM) | > 64 | 1.74 (≈ 4.2 µM) | 0.125 (≈ 0.302 µM) | – | 0.5 (≈ 1.21 µM) | –
6 | COc1ccc(-c2c(F)cc3c(c2F)CN2C(=O)O[C@@H](CNC(C)=O)[C@@H]2O3)cn1 | 0.5 (≈ 1.23 µM) | 8 (≈ 19.7 µM) | 6.75 (≈ 16.7 µM) | 0.032 (≈ 0.0789 µM) | – | 0.5 (≈ 1.23 µM) | –
7 | CC(=O)NC[C@H]1OC(=O)N2Cc3cc(-c4ccc(-c5nnn(C)n5)nc4)c(F)cc3O[C@@H]12 | 0.5 (≈ 1.14 µM) | 0.125 (≈ 0.284 µM) | 0.54 (≈ 1.23 µM) | 0.125 (≈ 0.284 µM) | – | – | –
8 | CC(=O)NC[C@@H]1OC(=O)N2Cc3cc(-c4ccn5ncnc5c4)c(F)cc3O[C@@H]12 | 0.5 (≈ 1.26 µM) | 8 (≈ 20.1 µM) | 1.43 (≈ 3.6 µM) | 0.5 (≈ 1.26 µM) | > 64 | 2 (≈ 5.03 µM) | –
9 | CC(=O)c1ccc(-c2c(F)cc3c(c2F)CN2C(=O)O[C@@H](CN)[C@@H]2O3)cc1 | > 64 | 64 (≈ 171 µM) | 0.43 (≈ 1.15 µM) | > 64 | 34 (≈ 90.8 µM) | 64 (≈ 171 µM) | –
10 | CC(=O)NC[C@@H]1OC(=O)N2Cc3cc(-c4ccnc(C#N)c4)c(F)cc3O[C@@H]12 | 1 (≈ 2.62 µM) | 4 (≈ 10.5 µM) | 1.85 (≈ 4.84 µM) | 0.25 (≈ 0.654 µM) | > 64 | 1 (≈ 2.62 µM) | –
11 | CC(=O)NC[C@@H]1OC(=O)N2Cc3c(cc(F)c(-c4ccc(C(C)=O)cc4)c3F)O[C@@H]12 | 0.25 (≈ 0.6 µM) | 4 (≈ 9.61 µM) | 0.93 (≈ 2.23 µM) | 0.125 (≈ 0.3 µM) | > 64 | 0.25 (≈ 0.6 µM) | –
12 | CC(=O)Nc1ccc(O)cc1 [ACETAMINOPHEN] | – | – | – | – | – | – | bioavailability [19]: 27.6%
13 | CC(=O)NC[C@H]1OC(=O)N2Cc3cc(-c4ccc(C#N)nc4)c(F)cc3O[C@@H]12 | 0.5 (≈ 1.31 µM) | 0.125 (≈ 0.327 µM) | 0.48 (≈ 1.26 µM) | 0.125 (≈ 0.327 µM) | > 64 | – | –
